Consider 1 molecule from patent publication US20090209581A1, “NITROXIDES FOR USE IN TREATING OR PREVENTING IMMUNOLOGICAL DISEASES” (priority 2005, published 2009).

Molecules are shown by their SMILES.

The test system of test [1] is glucocorticoid-induced leucine zipper (GILZ). In words: Gene expression in cardiac tissue of mice after Tempol administration, chip-based microarray. In kind it is in vivo. On the procedure: To assess the effects of Tempol on gene expression, Tempol was administered to experimental mice at a dose of 5 mg/g of food from 14 months to 31 months after birth. Mice receiving the same food without the addition of Tempol were used as a negative control. At the age of 31 months, the experimental animals were sacrificed and the hearts were surgically removed. The expression of a broad spectrum of genes in the cardiac tissue was assessed using chip-based microarray technology. Such chips are well known in the art and are widely used to assess gene expression.

Test [2] concerns collagen type I alpha 1 (COL1A1). In words: Gene expression in adipose tissue of mice after Tempol administration, Affymetrix MOE430A 2.0 array. It counts as in vivo. On the procedure:
(§1) In a further gene expression study, Tempol was administered to experimental mice at a dose of 5 g/kg of diet from 12 months through 15 months. Mice receiving the same diet without the addition of Tempol were used as a negative control. At the age of 15 months, the adipose tissue of the experimental animals was obtained. The expression of a broad spectrum of genes in the adipose tissue was assessed using chip-based microarray technology. Specifically, in this case an Affymetrix MOE430A 2.0 array, containing 12,960 genes, was employed. Such chips are well known in the art and are widely used to assess gene expression.

Test [3] relates to complement component 6 (C6). The description is as above. It counts as in vivo. On the procedure: as §1
Test [4] deals with glucocorticoid-induced leucine zipper. In words: Protein level in circulating monocytes of patient after Tempol treatment. It counts as in vivo, human. Here is the method: (§2) A 70-kilogram patient diagnosed with an autoimmune disease is administered a dose of 1500 mg of Tempol per day for 180 days. This may be administered in a single dose, or may be administered as a number of smaller doses over a 24-hour period: for example, three 500-mg doses at eight-hour intervals. Following treatment, the protein level of glucocorticoid-induced leucine zipper in circulating monocytes is increased, and the protein levels of complement component 6 in plasma and of collagen type 1 A1 in fibroblasts is reduced.
(§3) A 70-kilogram patient is administered a dose of 1500 mg of Tempol per day for 180 days prior to receiving an organ transplant. This may be administered in a single dose, or may be administered as a number of smaller doses over a 24-hour period: for example, three 500-mg doses at eight-hour intervals. Following treatment, the protein level of glucocorticoid-induced leucine zipper in circulating monocytes is increased, and the protein levels of complement component 6 in plasma and of collagen type 1 A1 in fibroblasts is reduced.

The test system of the next test is complement component 6. In words: Protein level in plasma of patient after Tempol treatment. In kind it is in vivo, human. On the procedure: as §2, §3
Another test relates to collagen type 1 A1. In words: Protein level in fibroblasts of patient after Tempol treatment. In kind it is in vivo, human. Here is the method: as §2, §3
Where [5] appears, read: 5 g/kg of diet from 12 through 15 months, microarray signal.
Setting [6] is: Example 1: patient with autoimmune disease, 1500 mg per day for 180 days.
Setting [7] is: Example 2: 1500 mg per day for 180 days prior to organ transplant.

Consider `CC1(C)CC(O)CC(C)(C)N1[O]` [Tempol, 4-hydroxy-2,2,6,6-tetramethylpiperidine-1-oxyl], for which, in test [1] (TEMPOL-treated vs control mice, upregulated gene), the “GILZ Fold change” value came to 2.3. Besides, in test [1] (mouse tp51, 5 mg/g of food from 14 to 31 months, microarray signal), the “GILZ (AA097711) expression, TEMPOL-treated mice tp51” value is 83. In test [1] (mouse tp52, 5 mg/g of food from 14 to 31 months, microarray signal), the “GILZ (AA097711) expression, TEMPOL-treated mice tp52” value is 33. Besides, the “GILZ (AA097711) expression, TEMPOL-treated mice tp53” value in test [1] (mouse tp53, 5 mg/g of food from 14 to 31 months, microarray signal) is recorded as 4. The “COL1A1 expression, Mean (Tempol-treated mice)” value in test [2] (setting [5]) is 1688. Moreover, the “COL1A1 Fold change” value in test [2] (Tempol-treated vs control mice) is recorded as −1.28. In addition, the “C6 expression, Mean (Tempol-treated mice)” value in test [3] (setting [5]) is 337. Moreover, the “C6 Fold change” value in test [3] (Tempol-treated vs control mice) is −1.85. The C6 expression decrease result in test [3] (Tempol-treated vs control mice) is “decrease in expression”. In addition, the “protein level of glucocorticoid-induced leucine zipper in circulating monocytes” value in test [4] (setting [6]) and in test [4] (setting [7]) was “increased” throughout. For the same molecule, the “protein level of complement component 6 in plasma” value in the test on complement component 6 (setting [6]) and in the test on complement component 6 (setting [7]) was “reduced” in each case. The “protein level of collagen type 1 A1 in fibroblasts” value in the test on collagen type 1 A1 (setting [6]) and in the test on collagen type 1 A1 (setting [7]) was “reduced” throughout.
